Data as given in ChEMBL document CHEMBL1201862, “PubChem BioAssay data set” (2004).
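Exposure lasted 48 hours, with cells grown in 96-well plates and compounds tested at five concentrations. GI50: concentration for 50% inhibition of growth.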 Active and inactive are the calls of the source. Rule as the data show it: active = GI50 up to about 1.1 µM and inactive = higher.

Assays:
Test in all cases: NCI anticancer screen, dose series, 48 h
[1] = system: BT-549
[2] = system: COLO 205
[3] = system: DU-145
[4] = system: EKVX
[5] = system: HCC 2998
[6] = system: HCT-15
[7] = system: HOP-62
[8] = system: LOX IMVI
[9] = system: MDA-MB-435
[10] = system: NCI-H522
[11] = system: NCI/ADR-RES
[12] = system: OVCAR-5
[13] = system: OVCAR-8
[14] = system: PC-3
[15] = system: RXF 393
[16] = system: SF-268
[17] = system: SF-295
[18] = system: SK-MEL-28
[19] = system: SK-MEL-5
[20] = system: SW-620

Structure (SMILES)	GI50 [1]	GI50 [2]	GI50 [3]	GI50 [4]	GI50 [5]	GI50 [6]	GI50 [7]	GI50 [8]	GI50 [9]	GI50 [10]	GI50 [11]	GI50 [12]	GI50 [13]	GI50 [14]	GI50 [15]	GI50 [16]	GI50 [17]	GI50 [18]	GI50 [19]	GI50 [20]
Clc1ccc2c(NCCCCCCNc3ccnc4cc(Cl)ccc34)ccnc2c1	11.6 µM (inactive)	1.82 µM (inactive)	6.19 µM (inactive)	6.97 µM (inactive)	1.67 µM (inactive)	2.88 µM	4.72 µM (inactive)	1.74 µM (inactive)	6.04 µM (inactive)	1.69 µM (inactive)	4.56 µM (inactive)	7.05 µM (inactive)	2.05 µM (inactive)	3.65 µM (inactive)	3.01 µM (inactive)	5.35 µM (inactive)	2.11 µM (inactive)	4.62 µM (inactive)	3.34 µM (inactive)	1.63 µM (inactive)
CCOC(=O)c1c(O)nc(O)c(CC)c1C	> 100 µM (inactive)	> 100 µM (inactive)	> 100 µM (inactive)	> 100 µM (inactive)	> 100 µM (inactive)	> 100 µM	> 100 µM (inactive)	> 100 µM (inactive)	> 100 µM (inactive)	> 100 µM (inactive)	> 100 µM (inactive)	> 100 µM (inactive)	> 100 µM (inactive)	> 100 µM (inactive)	> 100 µM (inactive)	> 100 µM (inactive)	> 100 µM (inactive)	> 100 µM (inactive)	> 100 µM (inactive)	> 100 µM (inactive)
C=CCON(C(=O)OC(C)(C)C)C(C)(C)C	> 100 µM (inactive)	> 100 µM (inactive)	> 100 µM (inactive)	> 100 µM (inactive)	> 100 µM (inactive)	> 100 µM	> 100 µM (inactive)	> 100 µM (inactive)	> 100 µM (inactive)	> 100 µM (inactive)	> 100 µM (inactive)	> 100 µM (inactive)	> 100 µM (inactive)	> 100 µM (inactive)	> 100 µM (inactive)	> 100 µM (inactive)	> 100 µM (inactive)	> 100 µM (inactive)	> 100 µM (inactive)	> 100 µM (inactive)
C=C1C(=O)OC2C3OC(C)(CCC(O)C3COC(C)=O)CC(OC(=O)/C(=C/C)COC(C)=O)C12 (stereo not given)	0.18 µM (active)	0.082 µM (active)	0.778 µM (active)	0.424 µM (active)	1.3 µM (inactive)	0.061 µM	3.08 µM (inactive)	0.163 µM (active)	0.109 µM (active)	0.0317 µM (active)	0.59 µM (active)	0.586 µM (active)	0.532 µM (active)	1.48 µM (inactive)	0.223 µM (active)	0.982 µM (active)	9.12 µM (inactive)	0.116 µM (active)	0.684 µM (active)	0.0807 µM (active)
CC(=O)N1c2ccccc2Sc2cc(C(O)(C(F)(F)F)C(F)(F)F)ccc21	> 10 µM (inactive)	> 10 µM (inactive)	> 10 µM (inactive)	> 10 µM (inactive)	> 10 µM (inactive)	> 10 µM	> 10 µM (inactive)	> 10 µM (inactive)	> 10 µM (inactive)	> 10 µM (inactive)	> 10 µM (inactive)	> 10 µM (inactive)	> 10 µM (inactive)	> 10 µM (inactive)	> 10 µM (inactive)	> 10 µM (inactive)	> 10 µM (inactive)	> 10 µM (inactive)	7.26 µM (inactive)	> 10 µM (inactive)
NNC(=O)c1nn[nH]c1SSc1[nH]nnc1C(=O)NN	> 100 µM (inactive)	> 100 µM (inactive)	> 100 µM (inactive)	> 100 µM (inactive)	> 100 µM (inactive)	> 100 µM	> 100 µM (inactive)	> 100 µM (inactive)	> 100 µM (inactive)	> 100 µM (inactive)	> 100 µM (inactive)	> 100 µM (inactive)	> 100 µM (inactive)	> 100 µM (inactive)	> 100 µM (inactive)	> 100 µM (inactive)	> 100 µM (inactive)	> 100 µM (inactive)	> 100 µM (inactive)	> 100 µM (inactive)
NC1CCN(c2nc3ccccc3c3c2CCCC3)CC1	12.7 µM (inactive)	1.67 µM (inactive)	11.9 µM (inactive)	5.9 µM (inactive)	1.73 µM (inactive)	5.37 µM	15.1 µM (inactive)	3.69 µM (inactive)	2.2 µM (inactive)	5.73 µM (inactive)	12.2 µM (inactive)	6.32 µM (inactive)	13.2 µM (inactive)	7.89 µM (inactive)	2.33 µM (inactive)	12.5 µM (inactive)	10.1 µM (inactive)	2.73 µM (inactive)	2.57 µM (inactive)	2.75 µM (inactive)
